Reference: ChEMBL document CHEMBL1201862, “PubChem BioAssay data set” (2004)
Activity calls are given as the source filed them.

Legend:
HeLa = test: ATP-based viability loss in HeLa cells – cell-based, CellTiter-Glo luminescence, cherry-pick samples, cytotoxicity control for MITF activator project, dose response (AID 540259); format: functional; conditions: Homo sapiens
A-375 = test: proliferation inhibition in MITF-low A375 cells – cell-based, cherry-pick samples, set 2, counter-screen for MITF modulator project, dose response (AID 540335); format: functional; conditions: Homo sapiens
HEK293 [1] = test: cells; conditions: Homo sapiens
[2] = viability loss in THP-1 monocytes – THP-1 cells, cytotoxicity control for Vif-APOBEC3G degradation inhibitor project, dose response (AID 1117359); format: functional; conditions: THP-1
[3] = target: T1, Microphthalmia-associated transcription factor (Homo sapiens, UniProt O75030); test: reducers of TRPM1 reporter luminescence, concentration series – cell-based, SK-MEL-5, cherry-picked, set 3, MITF inhibitor project, dose response (AID 493073); format: functional;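 note: SK-MEL-5 melanoma cells with luciferase driven by the MITF target TRPM1 promoter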
T1 sequence (O75030 whole entry): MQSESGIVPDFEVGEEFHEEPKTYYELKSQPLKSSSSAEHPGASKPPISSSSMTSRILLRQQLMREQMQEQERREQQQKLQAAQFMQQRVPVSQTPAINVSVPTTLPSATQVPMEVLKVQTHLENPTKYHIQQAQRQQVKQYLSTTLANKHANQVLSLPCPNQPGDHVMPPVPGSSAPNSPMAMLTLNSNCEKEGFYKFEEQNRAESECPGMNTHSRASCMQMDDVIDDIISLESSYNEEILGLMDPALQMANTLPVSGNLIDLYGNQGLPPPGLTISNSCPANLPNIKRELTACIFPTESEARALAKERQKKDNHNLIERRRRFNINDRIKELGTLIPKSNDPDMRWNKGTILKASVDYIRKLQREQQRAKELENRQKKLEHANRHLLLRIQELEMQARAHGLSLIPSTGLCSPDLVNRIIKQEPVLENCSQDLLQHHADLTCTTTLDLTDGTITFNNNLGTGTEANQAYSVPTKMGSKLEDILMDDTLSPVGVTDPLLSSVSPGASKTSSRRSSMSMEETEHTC

[4] = target: Hepatocyte nuclear factor 4-alpha (Homo sapiens, UniProt P41235); format: functional, cell-based;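 note: biochemical luminescence-based dose-response counterscreen measuring inhibition of HNF4 dimerization, run alongside a screen for blockers of ABHD5–perilipin-5 interaction; split luciferase complementation of HNF4 fusion proteins in cell lysate measuring dimerization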
Sequence of Hepatocyte nuclear factor 4-alpha (P41235 whole entry, the tested form may be a part): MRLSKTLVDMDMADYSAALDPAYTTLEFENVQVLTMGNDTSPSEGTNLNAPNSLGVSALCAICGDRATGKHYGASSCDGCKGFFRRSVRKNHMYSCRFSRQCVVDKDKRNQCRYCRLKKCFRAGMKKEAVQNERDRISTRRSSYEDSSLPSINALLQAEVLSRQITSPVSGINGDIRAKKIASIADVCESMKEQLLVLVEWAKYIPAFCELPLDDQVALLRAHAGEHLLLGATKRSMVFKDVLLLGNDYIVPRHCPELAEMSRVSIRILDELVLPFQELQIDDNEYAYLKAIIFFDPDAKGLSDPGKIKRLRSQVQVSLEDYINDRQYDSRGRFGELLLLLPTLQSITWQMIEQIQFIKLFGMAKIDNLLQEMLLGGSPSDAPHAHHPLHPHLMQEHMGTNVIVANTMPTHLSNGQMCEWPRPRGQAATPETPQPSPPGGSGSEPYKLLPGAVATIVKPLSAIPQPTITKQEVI

HEK293 [5] = test: cells; conditions: Homo sapiens; remark: listed apart in the source
[6] = Luminescence Cell-Based Dose Retest to Confirm Inhibitors of Cancer Stem Cells. [Related pubchem assays (depositor defined):AID2717, AID2721]; format: functional; conditions: Homo sapiens
Beta-galactosidase = Beta-galactosidase (Escherichia coli, UniProt Q8VNN2); test: PubChem AID 485352; format: functional
Sequence of Beta-galactosidase (Q8VNN2 whole entry): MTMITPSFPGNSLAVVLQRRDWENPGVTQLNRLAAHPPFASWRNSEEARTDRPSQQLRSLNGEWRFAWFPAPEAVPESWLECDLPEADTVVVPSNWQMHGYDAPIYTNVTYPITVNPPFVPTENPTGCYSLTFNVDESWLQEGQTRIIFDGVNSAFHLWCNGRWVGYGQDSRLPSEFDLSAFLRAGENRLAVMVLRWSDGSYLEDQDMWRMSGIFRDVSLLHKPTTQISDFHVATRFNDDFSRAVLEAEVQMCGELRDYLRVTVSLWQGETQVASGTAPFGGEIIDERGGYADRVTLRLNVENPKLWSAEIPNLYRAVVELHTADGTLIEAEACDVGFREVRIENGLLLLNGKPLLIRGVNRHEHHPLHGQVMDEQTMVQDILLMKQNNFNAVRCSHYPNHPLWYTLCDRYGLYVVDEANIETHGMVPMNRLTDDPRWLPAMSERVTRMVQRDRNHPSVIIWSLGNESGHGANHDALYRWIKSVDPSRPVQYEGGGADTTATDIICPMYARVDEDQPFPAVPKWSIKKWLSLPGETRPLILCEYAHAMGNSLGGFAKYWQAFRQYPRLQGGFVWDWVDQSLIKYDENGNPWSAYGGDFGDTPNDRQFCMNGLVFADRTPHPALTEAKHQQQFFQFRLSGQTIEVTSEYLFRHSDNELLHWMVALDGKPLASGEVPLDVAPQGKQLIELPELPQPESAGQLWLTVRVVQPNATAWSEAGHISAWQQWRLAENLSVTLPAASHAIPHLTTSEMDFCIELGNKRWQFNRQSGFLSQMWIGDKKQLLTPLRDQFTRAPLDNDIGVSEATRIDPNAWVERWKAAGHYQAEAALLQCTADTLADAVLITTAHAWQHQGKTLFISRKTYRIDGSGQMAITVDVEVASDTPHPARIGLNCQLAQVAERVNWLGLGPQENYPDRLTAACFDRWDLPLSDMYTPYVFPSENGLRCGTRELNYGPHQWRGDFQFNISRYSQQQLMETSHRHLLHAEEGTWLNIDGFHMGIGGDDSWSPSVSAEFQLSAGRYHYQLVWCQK

[7] = target: T2, Type-1 angiotensin II receptor (Homo sapiens, UniProt P30556); test: antagonism of angiotensin II type 1 receptor – cell-based, uHTS hits, selectivity assay for APJ receptor antagonist project, dose response (AID 463214); format: functional;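 note: antagonist potency against angiotensin II stimulated AT1 response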
T2 sequence (P30556 whole entry): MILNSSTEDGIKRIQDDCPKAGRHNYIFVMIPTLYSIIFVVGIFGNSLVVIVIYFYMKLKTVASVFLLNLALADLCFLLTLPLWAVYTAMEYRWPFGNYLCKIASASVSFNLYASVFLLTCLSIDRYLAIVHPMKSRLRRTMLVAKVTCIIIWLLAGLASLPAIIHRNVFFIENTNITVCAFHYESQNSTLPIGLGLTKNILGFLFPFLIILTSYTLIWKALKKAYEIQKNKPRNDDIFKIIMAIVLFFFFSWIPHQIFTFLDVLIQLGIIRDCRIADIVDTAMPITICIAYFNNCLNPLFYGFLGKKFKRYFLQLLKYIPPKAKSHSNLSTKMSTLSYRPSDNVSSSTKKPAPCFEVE

[8] = target: T3, Endoribonuclease toxin MazF (Escherichia coli K-12, UniProt P0AE70); test: activation of MazEF endoribonuclease cleavage – biochemical, fluorescence, single-stranded RNA substrate, uHTS hits, dose response (AID 588481); format: functional
T3 sequence (P0AE70 whole entry): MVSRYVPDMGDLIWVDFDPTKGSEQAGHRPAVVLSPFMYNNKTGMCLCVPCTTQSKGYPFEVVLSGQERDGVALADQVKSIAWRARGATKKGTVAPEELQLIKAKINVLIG

[9] = target: T3, Endoribonuclease toxin MazF; test: substrate-only fluorescence increase artefacts – biochemical, single-stranded RNase substrate, counter-screen for MazEF activator project, dose response (AID 588502); format: functional
[10] = target: T4, Oxysterols receptor LXR-beta (Homo sapiens, UniProt P55055); format: functional, cell-based;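 note: agonist activity at LXR measured by a cell-based luminescence readout across a dose range, run as a counterscreen for daf-12 agonists; HEK293 cells with Gal4-LXR fusion and GAL4-driven luciferase reporter; potency for activation of Gal4-LXR reporter so compounds are agonists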
T4 sequence (P55055 whole entry): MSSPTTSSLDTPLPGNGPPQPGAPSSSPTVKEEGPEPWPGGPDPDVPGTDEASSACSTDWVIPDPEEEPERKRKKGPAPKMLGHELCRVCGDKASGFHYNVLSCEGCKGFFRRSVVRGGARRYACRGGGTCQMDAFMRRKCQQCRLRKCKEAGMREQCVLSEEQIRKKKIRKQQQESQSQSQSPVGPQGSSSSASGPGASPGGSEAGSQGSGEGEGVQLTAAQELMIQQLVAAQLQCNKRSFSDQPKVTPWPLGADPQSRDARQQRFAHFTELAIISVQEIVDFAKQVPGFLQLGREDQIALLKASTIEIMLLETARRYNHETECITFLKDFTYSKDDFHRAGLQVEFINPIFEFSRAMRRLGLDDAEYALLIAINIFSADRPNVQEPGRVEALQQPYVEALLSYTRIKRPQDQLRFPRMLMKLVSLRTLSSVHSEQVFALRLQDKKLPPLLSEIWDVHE

[11] = target: T5, Sentrin-specific protease 8 (Homo sapiens, UniProt Q96LD8); format: functional;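 note: luminescence read-out of SENP8 inhibition, dose-response confirmation following an ultra-high-throughput screen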
T5 sequence (Q96LD8 whole entry): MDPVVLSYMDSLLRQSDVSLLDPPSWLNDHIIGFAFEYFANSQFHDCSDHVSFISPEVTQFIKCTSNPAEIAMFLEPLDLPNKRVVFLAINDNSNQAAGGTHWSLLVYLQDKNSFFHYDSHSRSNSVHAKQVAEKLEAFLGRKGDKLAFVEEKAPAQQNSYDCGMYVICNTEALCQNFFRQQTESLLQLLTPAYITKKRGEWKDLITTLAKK

[12] = target: T6, Sentrin-specific protease 7 (Homo sapiens, UniProt Q9BQF6); format: functional;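 note: Luminescence-based dose-response confirmation of ultra-high-throughput screening hits, measuring inhibition of SENP7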
T6 sequence (Q9BQF6 whole entry): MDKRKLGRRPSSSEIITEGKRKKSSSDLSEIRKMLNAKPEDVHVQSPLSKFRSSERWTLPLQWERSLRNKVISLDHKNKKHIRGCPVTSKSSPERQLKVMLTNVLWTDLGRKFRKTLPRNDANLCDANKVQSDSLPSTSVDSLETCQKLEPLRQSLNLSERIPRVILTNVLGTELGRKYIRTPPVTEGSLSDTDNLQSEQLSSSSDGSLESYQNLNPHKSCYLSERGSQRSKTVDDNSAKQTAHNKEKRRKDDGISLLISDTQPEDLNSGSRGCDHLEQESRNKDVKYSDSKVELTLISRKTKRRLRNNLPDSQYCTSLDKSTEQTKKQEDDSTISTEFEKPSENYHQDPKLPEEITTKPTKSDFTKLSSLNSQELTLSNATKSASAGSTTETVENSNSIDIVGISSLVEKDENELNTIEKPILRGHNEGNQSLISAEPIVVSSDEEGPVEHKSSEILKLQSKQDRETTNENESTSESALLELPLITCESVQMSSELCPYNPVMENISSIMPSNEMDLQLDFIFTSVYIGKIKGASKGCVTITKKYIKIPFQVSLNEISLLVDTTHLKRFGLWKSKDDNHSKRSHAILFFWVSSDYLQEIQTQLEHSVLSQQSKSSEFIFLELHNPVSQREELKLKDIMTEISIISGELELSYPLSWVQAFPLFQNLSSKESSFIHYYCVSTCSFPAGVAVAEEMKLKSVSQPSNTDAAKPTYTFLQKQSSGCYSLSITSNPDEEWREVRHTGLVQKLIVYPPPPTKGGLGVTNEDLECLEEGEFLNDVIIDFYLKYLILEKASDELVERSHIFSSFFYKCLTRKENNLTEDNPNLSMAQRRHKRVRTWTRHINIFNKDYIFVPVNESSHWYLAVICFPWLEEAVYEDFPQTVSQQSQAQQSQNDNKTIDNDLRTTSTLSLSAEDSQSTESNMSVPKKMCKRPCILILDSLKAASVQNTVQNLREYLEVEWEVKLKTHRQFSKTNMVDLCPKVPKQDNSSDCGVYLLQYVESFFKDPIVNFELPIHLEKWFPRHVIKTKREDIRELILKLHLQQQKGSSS

Caspase-3 [13] = target: T7, Caspase-3 (Homo sapiens, UniProt P42574); format: functional
T7 sequence (P42574 whole entry): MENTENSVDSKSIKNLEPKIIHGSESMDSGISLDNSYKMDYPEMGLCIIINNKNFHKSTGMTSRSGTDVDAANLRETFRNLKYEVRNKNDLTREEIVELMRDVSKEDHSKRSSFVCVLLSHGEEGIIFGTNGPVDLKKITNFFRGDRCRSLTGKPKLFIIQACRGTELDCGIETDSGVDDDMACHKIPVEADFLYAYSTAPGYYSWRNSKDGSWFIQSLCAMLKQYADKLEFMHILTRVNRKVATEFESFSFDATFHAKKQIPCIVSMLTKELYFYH

[14] = target: T6, Sentrin-specific protease 7; test: inhibition of human SENP7 cleavage activity – biochemical, luminescence, SAR follow-up (AID 504497); format: functional
[15] = target: T5, Sentrin-specific protease 8; test: inhibition of human SENP8 cleavage activity – biochemical, luminescence, SAR follow-up (AID 504501); format: functional
[16] = target: T8, Sentrin-specific protease 6 (Homo sapiens, UniProt Q9GZR1); test: SAR Analysis of small molecule inhibitors of Sentrin-specific protease 6 (SENP6) using a Luminescent assay. [Related pubchem assays (depositor defined):AID2582, AID2599]; format: functional
T8 sequence (Q9GZR1 whole entry): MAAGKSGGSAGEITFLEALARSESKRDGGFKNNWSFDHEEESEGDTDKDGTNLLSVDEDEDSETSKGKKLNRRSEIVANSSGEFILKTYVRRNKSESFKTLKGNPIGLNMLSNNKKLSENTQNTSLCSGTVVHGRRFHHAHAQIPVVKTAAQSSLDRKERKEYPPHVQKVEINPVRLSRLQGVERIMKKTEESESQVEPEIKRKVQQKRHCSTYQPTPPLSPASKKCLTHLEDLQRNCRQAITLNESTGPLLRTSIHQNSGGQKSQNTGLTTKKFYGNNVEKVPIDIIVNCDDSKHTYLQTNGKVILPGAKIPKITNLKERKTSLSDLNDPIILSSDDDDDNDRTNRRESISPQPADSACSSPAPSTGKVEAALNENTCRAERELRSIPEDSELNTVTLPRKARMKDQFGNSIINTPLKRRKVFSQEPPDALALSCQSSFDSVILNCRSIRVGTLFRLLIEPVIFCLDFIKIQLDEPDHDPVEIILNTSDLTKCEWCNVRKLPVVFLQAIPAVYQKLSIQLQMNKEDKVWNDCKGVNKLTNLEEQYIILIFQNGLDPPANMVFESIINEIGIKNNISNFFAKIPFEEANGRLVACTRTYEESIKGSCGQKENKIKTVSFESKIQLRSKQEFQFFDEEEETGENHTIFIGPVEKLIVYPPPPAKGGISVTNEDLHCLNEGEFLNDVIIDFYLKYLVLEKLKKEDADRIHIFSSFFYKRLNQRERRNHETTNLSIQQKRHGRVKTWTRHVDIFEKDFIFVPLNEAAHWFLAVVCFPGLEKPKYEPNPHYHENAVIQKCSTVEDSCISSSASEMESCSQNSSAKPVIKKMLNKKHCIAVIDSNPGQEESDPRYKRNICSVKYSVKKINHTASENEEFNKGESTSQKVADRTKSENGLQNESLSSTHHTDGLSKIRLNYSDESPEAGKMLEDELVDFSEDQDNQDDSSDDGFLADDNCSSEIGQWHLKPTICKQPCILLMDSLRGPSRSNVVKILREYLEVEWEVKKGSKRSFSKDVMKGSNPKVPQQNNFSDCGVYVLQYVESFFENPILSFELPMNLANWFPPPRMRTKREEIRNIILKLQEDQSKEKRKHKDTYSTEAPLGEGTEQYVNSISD

Caspase-3 [17] = target: T7, Caspase-3; test: SAR Analysis of small molecule inhibitors of Sentrin-specific proteases (SENPs) using a Caspase-3 Selectivity assay. [Related pubchem assays (depositor defined):AID2540, AID2599, AID434973, AID489001]; format: functional
[18] = target: T8, Sentrin-specific protease 6; format: functional
[19] = target: Ras and Rab interactor 1/Tyrosine-protein kinase ABL1 (Homo sapiens, UniProt P00519+Q13671); format: functional;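 note: biochemical TR-FRET dose-response test measuring inhibition of binding between Rin1 and Abl proteins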
Sequence of Ras and Rab interactor 1/Tyrosine-protein kinase ABL1 (P00519 whole entry): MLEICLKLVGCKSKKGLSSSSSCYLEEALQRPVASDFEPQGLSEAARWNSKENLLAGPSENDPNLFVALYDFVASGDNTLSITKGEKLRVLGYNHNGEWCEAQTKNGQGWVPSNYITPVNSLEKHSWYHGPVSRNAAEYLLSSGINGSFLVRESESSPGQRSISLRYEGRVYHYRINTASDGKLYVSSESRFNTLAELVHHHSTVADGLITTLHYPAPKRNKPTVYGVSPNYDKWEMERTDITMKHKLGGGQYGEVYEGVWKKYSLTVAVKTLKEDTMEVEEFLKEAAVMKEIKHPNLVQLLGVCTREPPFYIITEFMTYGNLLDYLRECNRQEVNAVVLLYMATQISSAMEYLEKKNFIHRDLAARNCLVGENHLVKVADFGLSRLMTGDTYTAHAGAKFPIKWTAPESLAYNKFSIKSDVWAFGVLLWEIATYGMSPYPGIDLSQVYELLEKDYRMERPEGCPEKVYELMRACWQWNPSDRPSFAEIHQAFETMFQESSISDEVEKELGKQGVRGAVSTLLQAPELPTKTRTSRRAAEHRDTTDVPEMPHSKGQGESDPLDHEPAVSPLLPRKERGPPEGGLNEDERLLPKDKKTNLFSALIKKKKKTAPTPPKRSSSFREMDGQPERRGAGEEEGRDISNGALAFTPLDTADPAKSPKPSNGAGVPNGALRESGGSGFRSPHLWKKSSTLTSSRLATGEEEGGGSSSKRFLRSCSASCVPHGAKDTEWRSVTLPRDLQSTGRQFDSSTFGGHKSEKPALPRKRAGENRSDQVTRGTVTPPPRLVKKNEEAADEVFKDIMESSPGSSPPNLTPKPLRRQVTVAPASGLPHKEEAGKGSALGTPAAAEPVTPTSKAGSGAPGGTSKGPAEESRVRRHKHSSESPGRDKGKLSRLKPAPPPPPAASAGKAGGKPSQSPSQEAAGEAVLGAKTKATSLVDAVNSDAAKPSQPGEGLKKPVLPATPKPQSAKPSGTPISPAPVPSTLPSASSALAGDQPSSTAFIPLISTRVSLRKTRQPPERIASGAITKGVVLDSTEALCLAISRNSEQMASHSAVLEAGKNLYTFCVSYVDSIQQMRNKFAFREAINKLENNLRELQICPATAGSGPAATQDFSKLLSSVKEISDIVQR
Sequence of Ras and Rab interactor 1/Tyrosine-protein kinase ABL1 (Q13671 whole entry): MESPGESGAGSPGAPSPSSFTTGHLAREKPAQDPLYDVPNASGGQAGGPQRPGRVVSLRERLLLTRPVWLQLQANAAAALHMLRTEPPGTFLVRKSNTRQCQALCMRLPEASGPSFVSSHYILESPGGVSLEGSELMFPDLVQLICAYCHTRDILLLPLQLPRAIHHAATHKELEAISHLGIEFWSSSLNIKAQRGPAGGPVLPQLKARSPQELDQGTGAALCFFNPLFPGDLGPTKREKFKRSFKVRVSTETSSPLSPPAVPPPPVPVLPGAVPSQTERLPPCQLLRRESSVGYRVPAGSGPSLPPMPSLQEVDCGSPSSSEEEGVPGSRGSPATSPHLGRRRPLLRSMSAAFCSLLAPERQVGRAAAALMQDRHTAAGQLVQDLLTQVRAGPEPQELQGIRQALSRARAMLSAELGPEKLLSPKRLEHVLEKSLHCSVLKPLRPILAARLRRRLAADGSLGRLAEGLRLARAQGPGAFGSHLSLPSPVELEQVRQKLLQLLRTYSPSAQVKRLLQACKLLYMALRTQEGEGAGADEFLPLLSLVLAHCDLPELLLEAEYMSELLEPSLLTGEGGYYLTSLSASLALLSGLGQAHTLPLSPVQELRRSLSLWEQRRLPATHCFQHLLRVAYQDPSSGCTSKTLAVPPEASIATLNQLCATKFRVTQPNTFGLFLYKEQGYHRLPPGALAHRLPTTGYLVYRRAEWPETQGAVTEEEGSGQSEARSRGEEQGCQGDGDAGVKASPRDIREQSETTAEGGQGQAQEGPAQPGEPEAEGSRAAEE

[20] = target: Cyclin-dependent kinase 19 (Homo sapiens, UniProt Q9BWU1); test: Navigating the Kinome. Panel member name: CDC2L6; format: functional
Sequence of Cyclin-dependent kinase 19 (Q9BWU1 whole entry): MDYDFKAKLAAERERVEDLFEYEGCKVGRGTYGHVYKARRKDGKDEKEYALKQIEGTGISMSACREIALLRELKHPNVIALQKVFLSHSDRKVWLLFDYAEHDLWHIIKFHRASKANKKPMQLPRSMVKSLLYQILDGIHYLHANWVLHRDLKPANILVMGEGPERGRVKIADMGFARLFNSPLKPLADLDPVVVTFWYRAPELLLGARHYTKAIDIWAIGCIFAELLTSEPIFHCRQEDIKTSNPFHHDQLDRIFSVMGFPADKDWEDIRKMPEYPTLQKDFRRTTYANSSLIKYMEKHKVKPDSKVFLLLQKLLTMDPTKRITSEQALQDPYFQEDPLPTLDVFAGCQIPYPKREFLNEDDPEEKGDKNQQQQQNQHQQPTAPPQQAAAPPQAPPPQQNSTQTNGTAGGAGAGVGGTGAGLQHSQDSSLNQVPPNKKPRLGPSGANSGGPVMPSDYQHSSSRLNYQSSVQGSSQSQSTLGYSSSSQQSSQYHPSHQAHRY

Aurora kinase A = Aurora kinase A (Homo sapiens, UniProt O14965); format: functional;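 note: value from the Navigating the Kinome kinase panel profiling, panel entry STK6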
Sequence of Aurora kinase A (O14965 whole entry): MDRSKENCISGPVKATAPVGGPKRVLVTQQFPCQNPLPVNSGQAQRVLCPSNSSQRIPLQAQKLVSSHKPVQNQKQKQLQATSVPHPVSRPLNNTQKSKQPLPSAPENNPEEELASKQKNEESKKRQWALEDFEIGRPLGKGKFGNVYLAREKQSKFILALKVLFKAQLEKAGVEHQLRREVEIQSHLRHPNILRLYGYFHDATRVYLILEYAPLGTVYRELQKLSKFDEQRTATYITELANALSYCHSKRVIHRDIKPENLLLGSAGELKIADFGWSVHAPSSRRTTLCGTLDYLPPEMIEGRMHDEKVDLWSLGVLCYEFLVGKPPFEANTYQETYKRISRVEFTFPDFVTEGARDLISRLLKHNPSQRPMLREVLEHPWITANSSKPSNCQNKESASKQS

Cc1ccsc1CCNC(=O)C1CCC(=O)N(CCc2cccc(F)c2)C1 (stereo not given)
AC50 (HeLa): 99.1 µM (active)

O=C1NC(=O)N(Cc2ccccc2)C(=O)/C1=C\C=C\c1ccco1
AC50 (A-375): 30.6 µM (active)
EC50 (HEK293 [1]): > 59.6 µM (inactive)
CC50 [2]: > 40 µM (active)
AC50 [3]: 6.29 µM (active)
IC50 [4]: 1.59 µM (active)
EC50 (HEK293 [5]): > 59.6 µM (inactive)
AC50 [6]: 1.48 µM (active)

NC(S)=NN=C(S)Nc1ccccc1
EC50 (Beta-galactosidase): > 40 µM (inactive)
IC50 [7]: > 40 µM (not active)

CC(C)(C)c1ccc(C(=O)CSc2nc3ccccc3c(=O)[nH]2)cc1
EC50 [8]: > 99 µM (inactive)
EC50 [9]: > 99 µM (inactive)

c1ccc(Nc2nc(-c3ccccc3)ns2)cc1
EC50 [10]: > 67.6 µM (inactive)
IC50 [11]: 2.41 µM (active)
IC50 [12]: 2.1 µM (active)
IC50 (Caspase-3 [13]): 18.8 µM (active)
IC50 [14]: 1.7 µM (active)
IC50 [15]: 2.5 µM (active)
IC50 [16]: 1.9 µM (active)
IC50 (Caspase-3 [17]): 7.8 µM (active)
IC50 [18]: 2.19 µM (active)

COc1cccc(NC(=O)C(=O)NCCC2CCCCN2S(=O)(=O)c2cccs2)c1 (stereo not given)
AC50 (HeLa): 239 µM (active)

CC(C)(C)OC(=O)N1CCC(C(=O)Nc2ccc(C(=O)N3CCCCC3)cc2)CC1
IC50 [19]: 21.9 µM (inactive)

Cc1ccc(C)c(NC(=O)Nc2ccc(-c3c(C)sc4ncnc(N)c34)cc2)c1
Ki [20]: > 100 µM (inactive)
Ki (Aurora kinase A): 0.251 µM (active)
